Laboratory results published in patent US4843087A (priority 1986, dated 1989).
In brackets after ≈: the same amount, converted by molar mass.

Legend:
Polio 2 = experiment: microbe, parasite or virus in culture; type: cell-based, poliovirus; details: Enterovirus C, HeLa, read-out: Polio 2 MIC
[1] = system: human rhinovirus (HRV) serotypes; experiment: microbe, parasite or virus in culture; type: cell-based; details: for MIC50: read-out: Rhinovirus MIC50; for IC (MIC80 of serotype panel): read-out: Rhinovirus MIC80

| SMILES | MIC (Polio 2) [µg/mL] | MIC50 [1] [µg/mL] | IC (MIC80 of serotype panel) [1] [µg/mL] |
| --- | --- | --- | --- |
| COc1cc(C(=O)NCCCl)cc(OC)c1OCCCCCc1cc(C)no1 [158(b), N-(2-Chloroethyl)-3,5-dimethoxy-4-{[5-(3-methyl-5-isoxazolyl)pentyl]oxy}benzamide] | 2 (≈ 4.87 µM) | 1.73 (≈ 4.21 µM) | 4.7 |
| Cc1cc(CCCCCCCOc2ccc(C3=NCCO3)cc2Br)on1 [Example 45, 5-{7-[2-Bromo-4(4,5-dihydro-2-oxazolyl)phenoxy]heptyl}-3-methylisoxazole] | 0.5 (≈ 1.19 µM) | 0.16 (≈ 0.38 µM) | 0.7 |
| COc1cc(C2=NCCO2)ccc1OCCCCCCCc1cc(C)no1 [41(b), 5-{7-[4-(4,5-Dihydro-2-oxazolyl)-2-methoxyphenoxy]heptyl}-3-methylisoxazole] | 1 (≈ 2.68 µM) | 0.55 (≈ 1.48 µM) | 4 |
| Cc1cc(CCCCCOc2c(Cl)cc(C(=O)NCCCl)cc2Br)on1 [152(c), 3-Bromo-5-chloro-N-(2-chloroethyl)-4-{[5-(3-methyl-5-isoxazolyl)pentyl]oxy}benzamide] | 2.1 (≈ 4.52 µM) | 0.14 (≈ 0.302 µM) | 0.6 |
| Cc1cc(CCCCCOc2c(C)cc(-c3cnco3)cc2C)on1 [97(b), 5-{5-[2,6-Dimethyl-4-(5-oxazolyl)phenoxy]pentyl}-3-methylisoxazole] | 5.4 (≈ 15.9 µM) | 0.135 (≈ 0.397 µM) | 0.76 |
| Cc1noc(CCCCCCCOc2ccc(C3=NCCO3)cc2)c1CO [29(b), 5-{7-[4-(4,5-Dihydro-2-oxazolyl)phenoxy]heptyl}-3-methyl-4-isoxazolemethanol] | 0.02 (≈ 0.0537 µM) | 1.25 (≈ 3.34 µM) | 1.7 |
| Cc1cc(CCCCCCc2ccc(C3=NCCO3)cc2)on1 [Example 142] | 0.37 (≈ 1.18 µM) | 0.26 (≈ 0.832 µM) | 6.2 |
| Cc1cc(CCCCCOc2ccc(C3=NCCO3)cc2C(F)F)on1 [Example 84, 5-{5-[2-Difluoromethyl-4-(4,5-dihydro-2-oxazolyl)phenoxy]pentyl}-3-methylisoxazole] | 0.11 (≈ 0.302 µM) | 0.082 (≈ 0.225 µM) | 0.72 |
| Cc1cc(CCCCCOc2ccc(C3=NC(C)CO3)cc2Cl)on1 (centres unmarked) [Example 32, 5-{5-[2-Chloro-4-(4,5-dihydro-4-methyl-2-oxazolyl)phenoxy]pentyl}-3-methylisoxazole] | 1.3 (≈ 3.58 µM) | 0.09 (≈ 0.248 µM) | 0.27 |
| Cc1cc(CCCCCCCOc2ccc(C3=NCCO3)cc2F)on1 [19(b), 5-{7-[4-(4,5-Dihydro-2-oxazolyl)-2-fluorophenoxy]heptyl}-3-methylisoxazole] | 0.3 (≈ 0.832 µM) | 0.8 (≈ 2.22 µM) | 99 |
| Cc1cc(CCCCCOc2ccc(-c3ncc(C)o3)cc2)on1 [93(f), 3-Methyl-5-{5-[4-(5-methyl-2-oxazolyl)phenoxy]pentyl}-isoxazole] | 0.09 (≈ 0.276 µM) | 0.09 (≈ 0.276 µM) | 1.3 |
| Cc1cc(CCCOc2c(Cl)cc(C3=NCCO3)cc2Cl)on1 [Example 115, 5-{3-[2,6-Dichloro-4-(4,5-dihydro-2-oxazolyl)phenoxy]propyl}-3-methylisoxazole] | 3.1 (≈ 8.73 µM) | 0.04 (≈ 0.113 µM) | 0.58 |
| CC(=O)OCc1cc(CCCCCCCOc2ccc(C3=NCCO3)cc2)on1 [Example 28, 5-{7-[4-(4,5-Dihydro-2-oxazolyl)phenoxy]heptyl}-3-isoxazolemethanol acetate] | 0.007 |  |  |
| Cc1cc(CCCCCCOc2ccc(C3=NCCO3)cc2Cl)on1 [Example 16, 5-{-[26-Chloro-4-(4,5-dihydro-2-oxazolyl)phenoxy]hexyl}-3-methylisoxazole] | 0.13 (≈ 0.358 µM) | 0.08 (≈ 0.22 µM) | 0.43 |
| CCc1cc(C2=NCCO2)cc(C)c1OCCCCCc1cc(C)no1 [157(d), 5-{5-[4-(4,5-Dihydro-2-oxazolyl)-2-ethyl-6-methylphenoxy]pentyl}-3-methylisoxazole] | 3.3 (≈ 9.26 µM) | 1.25 (≈ 3.51 µM) | 2.5 |
| Cc1cc(CCCCCOc2ccc(C3=NCCO3)cc2Br)on1 [Example 44, 5-{5-[2-Bromo-4-(4,5-dihydro-2-oxazolyl)phenoxy]pentyl}-3-methylisoxazole] | 0.3 (≈ 0.763 µM) | 0.08 (≈ 0.203 µM) | 0.54 |
| Cc1cc(CCCCCCOc2ccc(C3=NCCO3)cc2)on1 [14(b), 5-{6-[4-(4,5-Dihydro-2-oxazolyl)phenoxy]hexyl}-3-methylisoxazole] | 0.017 (≈ 0.0518 µM) | 0.8 (≈ 2.44 µM) | 25.5 |
| Cc1cc(CCCCCCCCOc2ccc(C3=NCCO3)cc2Cl)on1 [Example 22, 5-{8-[2-Chloro-4-(4,5-dihydro-2-oxazolyl)phenoxy]octyl}-3-methylisoxazole] | 1.1 (≈ 2.81 µM) |  |  |
| Cc1cc(CCCCCOc2ccc(-c3nc(C)c(C)o3)cc2Cl)on1 [Example 134, 5-{5-[2-Chloro-4-(4,5-dimethyl-2-oxazolyl)phenoxy]pentyl}-3-methylisoxazole] | 1.9 (≈ 5.07 µM) | 0.29 (≈ 0.774 µM) | 0.5 |
| Cc1cc(CCCCOc2ccc(C3=NC(C)CO3)cc2)on1 (centres unmarked) [Example 64, 5-{4-[4-(4,5-Dihydro-4-methyl-2-oxazoly)phenoxy]butyl}-3-methylisoxazole] | 2.4 (≈ 7.63 µM) | 0.485 (≈ 1.54 µM) | 25.6 |
